Assay [1] has as its target T1, Ba/F3 cells expressing EGFR A767insASV (Homo sapiens, UniProt P00533, DUP767-769, cells depend on it).
T1 construct: A767insASV|N/A|N/A|Addgene #32066
Nature of the assay: Cell viability (Cell Titer Glo), Ba/F3 cells expressing A767insASV. The format is cell-based. Conditions: 72 hours of treatment, read-out: IC50 values, nM Average. How it is done:
Cell viability was determined by the Cell Titer Glo assay.
Briefly, stable Ba/F3 cell lines were generated by retroviral transduction of Ba/F3 cell line for 12 hours. […] Three days after transduction, 2 μg/ml puromycin (Invitrogen) was added to the RPMI media. Cell lines were then grown in the absence of IL-3 for two weeks and cell viability was assessed every three days using the Cell Titer Glo assay (Progema).
Briefly, 2000-3000 cells per well were plated in 384-well plates (Greiner Bio-One) in technical triplicate. Cells were treated with seven different concentrations of tyrosine kinase inhibitors or vehicle alone at a final volume of 40 μL per well. After 3 days, 11 μL of Cell Titer Glo was added to each well. Plates were shaken for 15 minutes, and bioluminescence was determined using a FLUOstar OPTIMA multi-mode micro-plate reader (BMG LABTECH). Bioluminescence values were normalized to DMSO treated cells, and normalized values were plotted in GraphPad Prism using non-linear regression fit to normalized data with a variable slope.
In general terms: Cellular ATP, detected with luciferase, serves as a proxy for viable cell number.

Another assay deals with EGFR G719X/T790M. Nature of the assay: In vitro sensitivity of T790M acquired with an exon 18 point mutation. The format is cell-based. Conditions: T790M acquired with an exon 18 point mutation (G719X/T790M). On the procedure:
Thus, in certain aspects, the subject is determined to not have a mutation at EGFR C797 and/or T790, such as C797S and/or T790M. […] However, in certain aspects, L858R/T790M/C797S, Exon 19 deletion/T790M/C797s, and exon 20 insertions+ C797S or T790M mutants are resistant to EGFR TKIs.

T1 sequence (P00533 with tags, fused parts or gaps DUP767-769): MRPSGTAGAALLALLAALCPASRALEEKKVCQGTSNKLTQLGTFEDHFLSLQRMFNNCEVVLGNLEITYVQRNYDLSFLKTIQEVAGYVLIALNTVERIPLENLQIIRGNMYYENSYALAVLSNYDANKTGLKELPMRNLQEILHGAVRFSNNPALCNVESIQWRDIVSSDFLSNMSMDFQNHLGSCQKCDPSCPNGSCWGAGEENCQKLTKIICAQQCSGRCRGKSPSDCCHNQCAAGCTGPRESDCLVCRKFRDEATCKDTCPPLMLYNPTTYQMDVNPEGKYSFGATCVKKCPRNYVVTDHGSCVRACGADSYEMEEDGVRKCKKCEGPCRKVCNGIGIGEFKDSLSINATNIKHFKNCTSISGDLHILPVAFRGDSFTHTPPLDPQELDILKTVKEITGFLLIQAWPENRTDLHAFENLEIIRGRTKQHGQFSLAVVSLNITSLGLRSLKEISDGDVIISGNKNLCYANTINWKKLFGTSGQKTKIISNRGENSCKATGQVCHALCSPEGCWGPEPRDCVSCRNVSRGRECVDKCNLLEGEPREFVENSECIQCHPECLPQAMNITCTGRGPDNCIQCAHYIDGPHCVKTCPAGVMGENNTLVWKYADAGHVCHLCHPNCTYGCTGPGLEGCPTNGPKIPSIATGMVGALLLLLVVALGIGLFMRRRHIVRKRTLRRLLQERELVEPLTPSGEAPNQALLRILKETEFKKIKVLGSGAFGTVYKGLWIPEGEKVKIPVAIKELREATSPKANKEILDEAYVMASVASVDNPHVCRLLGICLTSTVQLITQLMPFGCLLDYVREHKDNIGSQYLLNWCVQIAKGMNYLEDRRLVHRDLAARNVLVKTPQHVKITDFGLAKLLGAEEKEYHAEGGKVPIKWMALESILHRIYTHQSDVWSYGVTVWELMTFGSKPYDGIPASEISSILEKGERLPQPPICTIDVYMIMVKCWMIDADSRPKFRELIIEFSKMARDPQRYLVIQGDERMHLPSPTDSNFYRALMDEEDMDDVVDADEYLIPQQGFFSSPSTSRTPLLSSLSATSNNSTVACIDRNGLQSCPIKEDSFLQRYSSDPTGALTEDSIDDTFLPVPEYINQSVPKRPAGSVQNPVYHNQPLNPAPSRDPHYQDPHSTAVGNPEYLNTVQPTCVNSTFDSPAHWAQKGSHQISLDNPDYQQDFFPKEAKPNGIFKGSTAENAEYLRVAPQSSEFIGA

With `C=CC(=O)N1CCC(Oc2cc3c(Nc4ccc(Cl)c(Cl)c4F)ncnc3cc2OC)CC1` [Poziotinib, 1-[4-[4-(3,4-dichloro-2-fluoroanilino)-7-methoxyquinazolin-6-yl]oxypiperidin-1-yl]prop-2-en-1-one], in assay [1], the GI50 is 1.62 nM. Besides, the sensitivity in vitro entry in the assay on EGFR G719X/T790M is on record as “remain sensitive”.

The values are drawn from patent US20220175779A1, “COMPOUNDS AGAINST CANCER BEARING TYROSINE KINASE INHIBITOR RESISTANT EGFR MUTATIONS” (Board of Regents, The University of Texas System, priority 2019, published 2022).
